Experimental data taken from US20240360148A1 (SUVALENT THERAPEUTICS, INC., priority 2021, published 2024).

Assays:
SAE1 [1] = molecular target: SAE1 (Homo sapiens (Human), UniProt Q9UBT2); assay: SAE High Throughput Biochemical Assay (HTRF), 15 min preincubation; conditions: SAE1 12.5 nM, ATP 100 μM
Procedure, shortened: (§1)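 SAE1 (12.5 nM) was preincubated with compound for 15 min at RT in HEPES pH 7.5, 0.1% BSA, 10 mM MgCl2. The reaction was then started with SUMO-GST and UBC9-His (40 nM each) plus 100 μM ATP for 45 min. After KF stop, HTRF (anti-GST-XL665/anti-His-EuK) was read at 2 h and overnight; some compounds were tested singly at 25 micromolar as percent of control.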

[2] = test system: sumoylation levels (SUMO 2/3 conjugates) in HCT-116 cells; assay: HCT-116 4 Hour Cell Assay (Western, SUMO 2/3 conjugates); assay type: cell-based; conditions: Homo sapiens, HCT-116, 4 h, 4 h treatment, Anti-Sumo 2-3 immunoblot, read-out: HCT-116 Western 4 h IC50 (μM) Ave
Procedure, shortened: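 Cells treated 4 h with 11 three-fold dilutions from 25 μM; lysed in RIPA with NEM and Benzonase. Non-reducing SDS-PAGE immunoblot with anti-SUMO 2/3 mAb, IRDye fluorescent detection; conjugate signal normalized to total protein stain, IC50 from quantified bands.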

SAE1 [3] = molecular target: SAE1 (Homo sapiens (Human), UniProt Q9UBE0+Q9UBT2); assay: SAE High Throughput Biochemical Assay (HTRF), 15 min preincubation; conditions: read-out: 15 min preincubation HTRF IC50 (μM) Ave, SAE1 12.5 nM, ATP 100 μM
Procedure, shortened: as §1

Chain of SAE1 (Homo sapiens (Human), UniProt Q9UBE0+Q9UBT2) (Q9UBE0 whole entry): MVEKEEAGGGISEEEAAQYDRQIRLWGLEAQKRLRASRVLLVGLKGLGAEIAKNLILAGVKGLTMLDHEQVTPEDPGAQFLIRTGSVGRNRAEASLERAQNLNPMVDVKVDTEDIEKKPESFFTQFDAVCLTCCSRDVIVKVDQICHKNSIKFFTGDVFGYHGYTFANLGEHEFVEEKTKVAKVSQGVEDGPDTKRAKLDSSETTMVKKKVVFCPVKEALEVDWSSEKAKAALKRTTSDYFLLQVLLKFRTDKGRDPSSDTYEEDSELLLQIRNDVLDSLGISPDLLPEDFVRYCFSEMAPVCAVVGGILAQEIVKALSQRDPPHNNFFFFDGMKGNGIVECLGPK
Chain of SAE1 (Homo sapiens (Human), UniProt Q9UBE0+Q9UBT2) (Q9UBT2 whole entry): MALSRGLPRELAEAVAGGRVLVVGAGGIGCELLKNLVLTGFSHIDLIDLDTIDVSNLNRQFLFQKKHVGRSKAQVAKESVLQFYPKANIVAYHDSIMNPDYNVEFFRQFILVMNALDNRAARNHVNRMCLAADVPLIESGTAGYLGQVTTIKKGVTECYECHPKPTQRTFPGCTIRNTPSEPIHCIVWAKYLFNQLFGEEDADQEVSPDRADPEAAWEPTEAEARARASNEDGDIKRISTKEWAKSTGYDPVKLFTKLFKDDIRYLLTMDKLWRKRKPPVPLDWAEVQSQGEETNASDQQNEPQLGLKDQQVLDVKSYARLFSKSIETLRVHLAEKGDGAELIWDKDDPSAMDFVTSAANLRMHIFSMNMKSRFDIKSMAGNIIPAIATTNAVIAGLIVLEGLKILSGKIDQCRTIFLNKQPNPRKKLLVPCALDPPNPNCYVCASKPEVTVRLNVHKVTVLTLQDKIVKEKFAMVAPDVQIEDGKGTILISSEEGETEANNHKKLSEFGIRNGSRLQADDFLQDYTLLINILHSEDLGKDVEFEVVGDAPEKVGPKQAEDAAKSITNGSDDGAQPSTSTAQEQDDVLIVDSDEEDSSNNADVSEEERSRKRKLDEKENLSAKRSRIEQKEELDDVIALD
Chain of SAE1 (Homo sapiens (Human), UniProt Q9UBT2) (Q9UBE0 whole entry): as the sequence (Q9UBE0 whole entry) above
Chain of SAE1 (Homo sapiens (Human), UniProt Q9UBT2) (Q9UBT2 whole entry): as the sequence (Q9UBT2 whole entry) above

| Structure (SMILES) | IC50 [2] [µM] | IC50 (SAE1 [1]) [µM] | IC50 (SAE1 [3]) [µM] |
| --- | --- | --- | --- |
| CCn1cc(-c2ccccc2[C@@H]2CN(C(=O)/C=C/C(N)C3CC3)Cc3sc(C#N)cc32)c(C(F)(F)F)n1 (stereo partly drawn) [Example 42, (4S)-6-((E)-4-amino-4-cyclopropylbut-2-enoyl)-4-(2-(1-ethyl-3-(trifluoromethyl)-1 H-pyrazol-4-yl)phenyl)-4,5,6,7-tetrahydrothieno[2,3-c]pyridine-2-carbonitrile] | – | 8.39 | – |
| CCOC/C=C/C(=O)N1Cc2sc(C#N)cc2[C@H](c2ccccc2-c2cn(CC)nc2C(F)(F)F)C1 [Example 8, (S, E)-6-(4-Ethoxybut-2-enoyl)-4-(2-(1-ethyl-3-(trifluoromethyl)-1 H-pyrazol-4-yl)phenyl)-4,5,6,7 tetrahydrothieno[2,3-c]pyridine-2-carbonitrile] | – | 10.8 | – |
| CCC(/C=C/C(=O)N1Cc2sc(C#N)cc2[C@H](c2ccccc2-c2cn(CC)nc2C(F)(F)F)C1)N(C)C (stereo partly drawn) [Example 24, (4S)-6-((E)-4-(dimethylamino)hex-2-enoyl)-4-(2-(1-ethyl-3-(trifluoromethyl)-1 H-pyrazol-4-yl)phenyl)-4,5,6,7-tetrahydrothieno[2,3-c]pyridine-2-carbonitrile] | – | > 25 | – |
| CCC(N)/C=C/C(=O)N1Cc2sc(C#N)cc2[C@H](c2ccccc2-c2cn(CC)nc2C(F)(F)F)C1 (stereo partly drawn) [Example 39, (4S)-6-((E)-4-aminohex-2-enoyl)-4-(2-(1-ethyl-3-(trifluoromethyl)-1 H-pyrazol-4-yl)phenyl)-4,5,6,7-tetrahydrothieno[2,3-c]pyridine-2-carbonitrile] | – | 8.56 | – |
| CCn1cc(-c2ccccc2[C@@H]2CN(C(=O)/C=C/CCNC)Cc3sc(C#N)cc32)c(C(F)(F)F)n1 [Example 45, (S, E)-4-(2-(1-ethyl-3-(trifluoromethyl)-1 H-pyrazol-4-yl)phenyl)-6-(5-(methylamino)pent-2-enoyl)-4,5,6,7-tetrahydrothieno[2,3-c]pyridine-2-carbonitrile] | – | 23.2 | – |
| CCn1cc(-c2ccccc2[C@@H]2CN(C(=O)/C=C/CNC3(C)CNC3)Cc3sc(C#N)cc32)c(C(F)(F)F)n1 [Example 98, (S,E)-4-(2-(1-Ethyl-3-(trifluoromethyl)-1H pyrazol-4-yl)phenyl)-6-(4-((3-methylazetidin-3-yl)amino)but-2-enoyl)-4,5,6,7-tetrahydrothieno[2,3-c]pyridine-2-carbonitrile] | – | > 25 | – |
| CCn1cc(-c2ccccc2[C@@H]2CN(C(=O)/C=C/[C@@H]3CC(C)(C)CN3)Cc3sc(C#N)cc32)c(C(F)(F)F)n1 [Example 83, (S)-6-((E)-3-((S)-4,4-Dimethylpyrrolidin-2-yl)acryloyl)-4-(2-(1-ethyl-3-(trifluoromethyl)-1H pyrazol-4-yl)phenyl)-4,5,6,7-tetrahydrothieno[2,3-c]pyridine-2-carbonitrile] | 0.309 | – | 0.76 |
| CCn1cc(-c2ccccc2[C@@H]2CN(C(=O)/C=C/CN3CCC(C)C3)Cc3sc(C#N)cc32)c(C(F)(F)F)n1 (some centres unmarked) [Example 32] | 2.05 | – | 3.9 |
| CCn1cc(-c2c(Cl)cccc2[C@@H]2CN(C(=O)/C=C/CN(C)C)Cc3sc(C#N)cc32)c(C(F)(F)F)n1 [Compound 243] | 0.502 | – | 1.17 |
| CCn1cc(-c2ccccc2[C@H]2c3cc(C#N)sc3CN(C(=O)/C=C/CN(C)C)[C@@H]2C)c(C(F)(F)F)n1 [Compound 233] | 0.914 | – | 4.82 |
| CCn1cc(-c2ccccc2[C@@H]2CN(C(=O)/C=C/CN3CCC(C(=O)O)C3)Cc3sc(C#N)cc32)c(C(F)(F)F)n1 (stereo partly drawn) [Example 5, 1-((E)-4-((S)-2-Cyano-4-(2-(1-ethyl-3-(trifluoromethyl)-1 H-pyrazol-4-yl)phenyl)-4,7-dihydrothieno[2,3-c]pyridin-6(5H)-yl)-4-oxobut-2-en-1-yl)pyrrolidine-3-carboxylic acid] | 14.1 | – | 10.3 |
| CCn1cc(-c2ccccc2C2CN(C(=O)/C=C/CN(C)C)Cc3sc(C#N)c(C)c32)c(C(F)(F)F)n1 (centres unmarked) [Compound 232] | 0.402 | – | 1.36 |
| CCn1cc(-c2c(C)cccc2[C@@H]2CN(C(=O)/C=C/CN(C)C)Cc3sc(C#N)cc32)c(C(F)(F)F)n1 [Compound 242] | 1.29 | – | 2.32 |
| CCn1cc(-c2ccccc2[C@@H]2CN(C(=O)/C=C/CNC(C)(C)C)Cc3sc(C#N)cc32)c(C(F)(F)F)n1 [Example 101, (S, E)-6-(4-(tert-Butylamino)but-2-enoyl)-4-(2-(1-ethyl-3-(trifluoromethyl)-1 H-pyrazol-4-yl)phenyl)-4,5,6,7-tetrahydrothieno[2,3-c]pyridine-2-carbonitrile] | 0.732 | – | 2.24 |
| [2H]C(C)(C)NC/C=C/C(=O)N1Cc2sc(C#N)cc2[C@H](c2cccc(F)c2-c2cn(CC)nc2C(F)(F)F)C1 [Example 52, (S, E)-4-(2-(1-ethyl-3-(trifluoromethyl)-1 H-pyrazol-4-yl)-3-fluorophenyl)-6-(4-((propan-2-yl-2-d)amino)but-2-enoyl)-4,5,6,7-tetrahydrothieno[2,3-c]pyridine-2-carbonitrile] | 0.308 | – | 0.69 |
| CCn1cc(-c2c([C@@H]3CN(C(=O)/C=C/CN(C)C)Cc4sc(C#N)cc43)ccc(O)c2F)c(C(F)(F)F)n1 [Compound 240] | 0.187 | – | 0.81 |

Further lines, with some results ahead:

| IC50 [2] [µM] | Structure (SMILES) | IC50 (SAE1 [1]) [µM] | IC50 (SAE1 [3]) [µM] |
| --- | --- | --- | --- |
| 0.547 | CCn1cc(-c2ccccc2[C@@H]2CN(C(=O)C#CCN(C)C)Cc3sc(C#N)cc32)c(C(F)(F)F)n1 [Example 132, (S)-6-(4-(Dimethylamino)but-2-ynoyl)-4-(2-(1-ethyl-3-(trifluoromethyl)-1 H-pyrazol-4-yl)phenyl)-4,5,6,7-tetrahydrothieno[2,3-c]pyridine-2-carbonitrile] | – | 0.18 |
| 0.262 | CCn1cc(-c2ccccc2[C@@H]2CN(C(=O)/C=C/[C@@H]3C[C@@H](C)CN3)Cc3sc(C#N)cc32)c(C(F)(F)F)n1 [Example 114, (S)-4-(2-(1-Ethyl-3-(trifluoromethyl)-1 H-pyrazol-4-yl)phenyl)-6-((E)-3-((2S, 4R)-4-methylpyrrolidin-2-yl)acryloyl)-4,5,6,7-tetrahydrothieno[2,3-c]pyridine-2-carbonitrile] | – | 1.19 |
| 1.06 | CC(C#N)n1cc(-c2ccccc2[C@@H]2CN(C(=O)/C=C/CN(C)C)Cc3sc(C#N)cc32)c(C(F)(F)F)n1 (stereo partly drawn) [Example 165, (4S)-4-(2-(1-(1-Cyanoethyl)-3-(trifluoromethyl)-1H-pyrazol-4-yl)phenyl)-6-((E)-4-(dimethylamino)but-2-enoyl)-4,5,6,7-tetrahydrothieno[2,3-c]pyridine-2-carbonitrile] | – | 3.42 |
| 0.792 | CCn1cc(-c2ccccc2[C@@H]2CN(C(=O)C#CCOC)Cc3sc(C#N)cc32)c(C(F)(F)F)n1 [Example 144, (S)-4-(2-(1-Ethyl-3-(trifluoromethyl)-1 H pyrazol-4-yl)phenyl)-6-(4-methoxybut-2-ynoyl)-4,5,6,7-tetrahydrothieno[2,3-c]pyridine-2-carbonitrile] | – | 0.54 |
| 0.178 | CCn1cc(-c2c(F)cccc2[C@@H]2CN(C(=O)/C=C/[C@@H]3C[C@@H]4C[C@@H]4N3)Cc3sc(C#N)cc32)c(C(F)(F)F)n1 [Example 123, (S)-6-((E)-3-((1S,3S,5S)-2-Azabicyclo[3.1.0]hexan-3-yl)acryloyl)-4-(2-(1-ethyl-3-(trifluoromethyl)-1H pyrazol-4-yl)-3-fluorophenyl)-4,5,6,7-tetrahydrothieno[2,3-c]pyridine-2-carbonitrile] | – | 1.17 |
| 0.46 | CCn1cc(-c2c(C3CN(C(=O)/C=C/CN(C)C)Cc4sc(C#N)cc43)ccc(O)c2F)c(C(F)(F)F)n1 (centres unmarked) [Example 189, (E)-6-(4-(Dimethylamino)but-2-enoyl)-4-(2-(1-ethyl-3-(trifluoromethyl)-1 H-pyrazol-4-yl)-3-fluoro-4-hydroxyphenyl)-4,5,6,7-tetrahydrothieno[2,3-c]pyridine-2-carbonitrile] | – | 1.67 |
| 0.501 | CCn1cc(-c2ccccc2[C@@H]2CN(C(=O)C#CC3CCNC3)Cc3sc(C#N)cc32)c(C(F)(F)F)n1 (stereo partly drawn) [Example 146, (4S)-4-(2-(1-Ethyl-3-(trifluoromethyl)-1 H pyrazol-4-yl)phenyl)-6-(3-(pyrrolidin-3-yl)propioloyl)-4,5,6,7-tetrahydrothieno[2,3-c]pyridine-2-carbonitrile] | – | 1.92 |
| 3.47 | CCn1cc(-c2ccccc2[C@@H]2CN(C(=O)C#CC3CNC3)Cc3sc(C#N)cc32)c(C(F)(F)F)n1 [Example 147, (S)-6-(3-(Azetidin-3-yl)propioloyl)-4-(2-(1-ethyl-3-(trifluoromethyl)-1 H pyrazol-4-yl)phenyl)-4,5,6,7-tetrahydrothieno[2,3-c]pyridine-2-carbonitrile] | – | 0.62 |
| 1.79 | CCn1cc(-c2ccccc2[C@@H]2CN(C(=O)/C=C/[C@H]3CCCN3)Cc3sc(C#N)cc32)c(C(F)(F)F)n1 [Example 113, (S)-4-(2-(1-Ethyl-3-(trifluoromethyl)-1 H-pyrazol-4-yl)phenyl)-6-((E)-3-((R)-pyrrolidin-2-yl)acryloyl)-4,5,6,7-tetrahydrothieno[2,3-c]pyridine-2-carbonitrile] | – | 1.61 |
